Data from PMC10313705, “Structure and transport mechanism of the human calcium pump SPCA1” (Cell Research, 2023).

Key:
hSPCA1 (hSPCA1a) [1] = biological target: T1, hSPCA1 (hSPCA1a) (Homo sapiens, UniProt P98194); test: cryo-EM structure; type: binding; design: gene ATP2C1; full-length (Met1-Val919), C-terminal 2x Strep tag, expressed in HEK293F cells, purified in DDM/CHS then digitonin; residues 1-15 and 906-919 not modelled; settings: phosphate transition-state analogue at Asp350; E2~P state; 10 mM NaF, 2 mM AlCl3, Mg2+, no added Ca2+, pH 8.0
T1 sequence (P98194 1-919): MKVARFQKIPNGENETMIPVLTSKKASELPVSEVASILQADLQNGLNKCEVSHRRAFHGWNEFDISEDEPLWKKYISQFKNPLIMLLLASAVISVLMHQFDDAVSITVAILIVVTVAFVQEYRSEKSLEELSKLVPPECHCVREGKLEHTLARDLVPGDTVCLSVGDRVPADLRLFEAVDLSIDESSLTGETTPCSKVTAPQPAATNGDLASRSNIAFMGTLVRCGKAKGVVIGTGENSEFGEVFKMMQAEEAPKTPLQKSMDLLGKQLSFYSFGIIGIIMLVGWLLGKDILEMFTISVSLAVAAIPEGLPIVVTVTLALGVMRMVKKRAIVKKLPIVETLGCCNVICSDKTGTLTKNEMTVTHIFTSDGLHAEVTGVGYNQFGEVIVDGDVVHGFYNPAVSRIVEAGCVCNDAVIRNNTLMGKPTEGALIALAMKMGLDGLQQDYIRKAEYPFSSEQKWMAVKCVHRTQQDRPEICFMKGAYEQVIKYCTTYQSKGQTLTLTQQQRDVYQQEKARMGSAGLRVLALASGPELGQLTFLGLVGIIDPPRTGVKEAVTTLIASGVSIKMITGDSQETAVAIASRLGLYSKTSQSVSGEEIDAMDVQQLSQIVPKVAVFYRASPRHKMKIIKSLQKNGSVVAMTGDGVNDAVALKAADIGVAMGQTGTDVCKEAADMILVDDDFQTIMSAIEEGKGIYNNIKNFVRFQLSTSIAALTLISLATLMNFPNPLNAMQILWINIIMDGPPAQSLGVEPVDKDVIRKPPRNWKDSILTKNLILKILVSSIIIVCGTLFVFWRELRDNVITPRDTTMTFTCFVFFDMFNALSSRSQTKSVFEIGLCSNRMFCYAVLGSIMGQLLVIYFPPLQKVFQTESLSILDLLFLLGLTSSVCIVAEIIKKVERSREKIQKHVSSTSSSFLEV

hSPCA1 (hSPCA1a) [2] = biological target: T1, hSPCA1 (hSPCA1a); test: cryo-EM structure ([…] Å); type: binding; design: gene ATP2C1; full-length (Met1-Val919), C-terminal 2x Strep tag, expressed in HEK293F cells, purified in DDM/CHS then digitonin; residues 1-15 and 906-919 not modelled; settings: CaE1P-ADP state; 5 mM ADP, 5 mM NaF, 1 mM AlCl3; Ca2+, Mg2+, pH 8.0
hSPCA1 (hSPCA1a) [3] = biological target: T1, hSPCA1 (hSPCA1a); design: gene ATP2C1; settings: phosphate analogue at Asp350; 10 mM NaF, 2 mM BeSO4, 1 mM CaCl2, Mg2+, pH 8.0; CaE2P (8IWS) and early E2P (8IWT) states
hSPCA1 (hSPCA1a) [4] = biological target: T1, hSPCA1 (hSPCA1a); design: gene ATP2C1; settings: ATP hydrolysis by purified protein in digitonin

## [F][Al-]([F])([F])[F] [AlF4^–]
hSPCA1 (hSPCA1a) [1]
  cryo-EM structure: The EM densities derived from AlF4^– were clearly visible near Asp350

## Nc1ncnc2c1ncn2[C@@H]1O[C@H](COP(=O)(O)OP(=O)(O)O)[C@@H](O)[C@H]1O [ADP]
hSPCA1 (hSPCA1a) [2]
  cryo-EM structure (3.71 Å): the ADP molecule (dark gray) in the CaE1P-ADP state

## [F][Be-]([F])[F] [BeF3^–]
hSPCA1 (hSPCA1a) [3]
  cryo-EM structures (3.42 Å CaE2P; 3.25 Å early E2P): allowed us to trace the BeF3^– densities which were clearly visible near Asp350

## Nc1ncnc2c1ncn2[C@@H]1O[C@H](COP(=O)(O)OP(=O)(O)OP(=O)(O)O)[C@@H](O)[C@H]1O [ATP]
hSPCA1 (hSPCA1a) [4]
  ATPase assay, Pi release kit (absorbance at 636 nm): an ATPase activity assay demonstrated that it has ATP hydrolysis activity
